Some test systems named below: 786-0 renal; HCC-2998 colon; HL-60(TB) leukemia; IGROV1 ovarian; KM12 colon; M14 melanoma; OVCAR-4 ovarian; SF-539 CNS; SK-MEL-5 melanoma; U251 CNS.
Holding throughout (assay): NCI anticancer screen, dose series, 48 h

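Following 48 hours of exposure in 96-well plates, responses at five concentrations were used to interpolate endpoints linearly. TGI: total growth inhibition.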

Take `c1cc(C[S+]2CCCC2)ccc1C[S+]1CCCC1`: the TGI with 786-0 renal, in the experiment with HCC-2998 colon, with HL-60(TB) leukemia, in the experiment with IGROV1 ovarian, with KM12 colon and in the experiment on M14 melanoma was greater than 100 µM each time. Also, the TGI with OVCAR-4 ovarian, in the experiment on SF-539 CNS, in the experiment on SK-MEL-5 melanoma and in the experiment on U251 CNS was greater than 100 µM in each case.
As to `COc1c(OC)c(O)c2c(=O)c(OC)c(-c3ccc4c(c3)OCO4)oc2c1O`, the TGI in the experiment with 786-0 renal, in the experiment with HCC-2998 colon, in the experiment on HL-60(TB) leukemia, in the experiment on IGROV1 ovarian, in the experiment on KM12 colon and in the experiment on M14 melanoma was greater than 100 µM in each case. Also, the TGI with OVCAR-4 ovarian, with SF-539 CNS, with SK-MEL-5 melanoma and in the experiment on U251 CNS was greater than 100 µM each time.
Turning to `CCNC(=O)/C=C/CCC#Cc1ccc(-c2ccc(-c3cccs3)s2)s1`, the TGI with 786-0 renal, with HCC-2998 colon, with HL-60(TB) leukemia, with IGROV1 ovarian, in the experiment with KM12 colon and in the experiment with M14 melanoma was greater than 100 µM in each case. The TGI in the experiment with OVCAR-4 ovarian, with SF-539 CNS, in the experiment on SK-MEL-5 melanoma and with U251 CNS was greater than 100 µM in each case.
With `C=CC(C)(C)N[C@@H](C(=O)N1CCC[C@H]1c1nc(-c2nc(C(=O)OCC=C(C)C)c(C)o2)c(C)o1)C(C)C`, the TGI is 44.5 µM in the experiment on 786-0 renal; 36 µM in the experiment with HCC-2998 colon; 93.9 µM in the experiment with HL-60(TB) leukemia; greater than 100 µM with IGROV1 ovarian; 60.3 µM in the experiment on KM12 colon; 83.4 µM with M14 melanoma. The TGI was 71.4 µM in the experiment on OVCAR-4 ovarian, 38.3 µM in the experiment with SF-539 CNS, 52 µM in the experiment on SK-MEL-5 melanoma and 45.1 µM with U251 CNS.
For `O=C(NCCCCNCCCNC(=O)c1ccccc1)c1ccccc1`, the TGI in the experiment with 786-0 renal, with HCC-2998 colon, in the experiment on HL-60(TB) leukemia, in the experiment on IGROV1 ovarian, with KM12 colon and with M14 melanoma was greater than 100 µM throughout. Besides, the TGI in the experiment with OVCAR-4 ovarian, in the experiment with SF-539 CNS, with SK-MEL-5 melanoma and with U251 CNS was greater than 100 µM in each case.
For `COc1cccc2c1C1(O)C2CCCC12OCCCO2` (stereo not given), the TGI with 786-0 renal, in the experiment on HCC-2998 colon, in the experiment with HL-60(TB) leukemia, with IGROV1 ovarian, with KM12 colon and in the experiment on M14 melanoma was greater than 100 µM throughout. Also, the TGI in the experiment with OVCAR-4 ovarian, with SF-539 CNS, with SK-MEL-5 melanoma and in the experiment on U251 CNS was greater than 100 µM in each case.
As to `COCN1CCN=c2c1c1c3c(c4ccccc4n23)CCC1`, the TGI in the experiment with 786-0 renal, with HCC-2998 colon, with HL-60(TB) leukemia, in the experiment with IGROV1 ovarian, with KM12 colon and in the experiment with M14 melanoma was greater than 100 µM each time. The TGI with OVCAR-4 ovarian, in the experiment on SF-539 CNS, in the experiment on SK-MEL-5 melanoma and in the experiment on U251 CNS was greater than 100 µM in each case.
Take `N#CC(C#N)=Cc1c(O)ccc2ccccc12`: the TGI with 786-0 renal is 33 µM; in the experiment on HCC-2998 colon, 33.1 µM; in the experiment on HL-60(TB) leukemia, 15.7 µM; in the experiment on IGROV1 ovarian it was 39.4 µM; in the experiment with KM12 colon, 33.3 µM; in the experiment on M14 melanoma it was 28.3 µM. The TGI stood at 43.6 µM in the experiment with OVCAR-4 ovarian, 29.1 µM with SF-539 CNS, 26.2 µM in the experiment with SK-MEL-5 melanoma and 32.5 µM in the experiment with U251 CNS.
`CCCn1c(=O)c2ccccc2[n+]2c(-c3ccc([N+](=O)[O-])cc3)csc12`: the TGI in the experiment with 786-0 renal is 76.3 µM; with HCC-2998 colon, greater than 100 µM; with HL-60(TB) leukemia, 57.9 µM; in the experiment with IGROV1 ovarian, greater than 100 µM; in the experiment with KM12 colon, 78.3 µM; in the experiment with M14 melanoma, greater than 100 µM. Further, the TGI in the experiment with OVCAR-4 ovarian was greater than 100 µM; in the experiment on SF-539 CNS, 49.2 µM; with SK-MEL-5 melanoma, 45.7 µM; with U251 CNS, greater than 100 µM.
In the case of `O=c1[nH]c2ccccc2nc1/C=C(\O)C(F)F`, the TGI with 786-0 renal, in the experiment with HCC-2998 colon, in the experiment on HL-60(TB) leukemia, with IGROV1 ovarian, with KM12 colon and in the experiment with M14 melanoma was greater than 100 µM each time. Besides, the TGI with OVCAR-4 ovarian, with SF-539 CNS, with SK-MEL-5 melanoma and with U251 CNS was greater than 100 µM throughout.
For `COc1cc(/C=C2\N=C(c3ccccc3)N(/N=C3\C(=O)Nc4ccccc43)C2=O)cc(OC)c1OC`, the TGI in the experiment with 786-0 renal, in the experiment with HCC-2998 colon, with HL-60(TB) leukemia, in the experiment on IGROV1 ovarian, in the experiment on KM12 colon and with M14 melanoma was greater than 100 µM throughout. The TGI with OVCAR-4 ovarian, in the experiment on SF-539 CNS, in the experiment on SK-MEL-5 melanoma and in the experiment with U251 CNS was greater than 100 µM in each case.

(Values after PubChem BioAssay (NCI).)
